Assay results taken from patent US20230000924A1, “COMPOSITIONS AND METHODS FOR GENERATION OF SINOATRIAL NODE-LIKE CELLS AND THEIR USE IN DRUG DISCOVERY” (Cornell University, priority 2019, published 2023).

Tested on: GATA5-induced progenitors
Test: qRT-PCR-based chemical screen in GATA5-induced murine ESC progenitors
Format: cell-based
From the text: FIG. 5. Optimization of the protocol for the derivation of SAN-like cells from hPSCs a, Schematic representation of the murine differentiation protocol and qRT-PCR analysis for the expression levels of TBX3, TBX18 and SHOX2 following induction of GATA4, GATA5 or GATA6 at day 4. Fold change was normalized to level using the iGATA6 line; b, Heatmap illustration of the qPCR results of transcription-screen for TBX3, TBX18 and SHOX2; hit compounds (EGF inhibitors) from plates 1 and 3 are circled. c, The activity of tyrphostin AG490 and 2NP on the expression of TBX3, TBX18 and SHOX2; d, The activity of cucurbitacin (STAT3 inhibitor) on expression of MYH6; e, qRT-PCR analysis for TBX3, TBX18 and SHOX2 in S1+RA (left) and S1+cucurbitacin (right); f, The percentage of SHOX2:GFP^+ cells treated with different EGF inhibitors (left) and dose-response curve for effects of Tyrphostin AG490 on the percentage of SHOX2:GFP^+ cells. Fold changes were normalized to DMSO-treated group unless stated otherwise.
We developed a protocol that maximizes the generation of pluripotent stem cell-derived SAN pacemaker lineages (PSC-SAN). […] We therefore applied GATA5-induced progenitors to an unbiased qRT-PCR-based chemical screen using annotated pathway modulating compounds to identify modulators that further enhance the expression of TTS and specification toward pacemaker lineage. […]

cucurbitacin
expression levels of nodal and atrial structural marker MYH6: enhances the expression levels
